Results from US8148391B2 (Cephalon, Inc., priority 2006, dated 2012).
Read-outs that look alike come from different tables or passages of the source. Blank lines part the entries; values can stand above or below the compound they belong to.

Columns and labels:
[1] = target: T1, baculovirus-expressed ALK (Homo sapiens, UniProt Q9UM73); experiment: ALK Kinase Assay (ELISA-type, time-resolved fluorescence); assay type: biochemical
T1 construct: host or cells: baculovirus expression system
Method in brief: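 Substrate coating: phospholipase C-γ, 10 μg/mL in TBS. Kinase step: 30 ng/ml ALK, 15 min, 37° C. Detection and analysis: Eu-N1 PT66 antibody, with IC50 fitted as a sigmoidal variable-slope dose-response curve.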

[2] = target: T2, c-Met (cytoplasmic domain) (Homo sapiens, UniProt P08581); experiment: c-Met Kinase Assay (same methods as for ALK, with modifications); assay type: biochemical
T2 construct: 10 ng/mL c-Met (cytoplasmic domain, Invitrogen Corporation #PV3143); purchased Invitrogen Corporation PV3143
T2 sequence (P08581 956-1390 limits assumed): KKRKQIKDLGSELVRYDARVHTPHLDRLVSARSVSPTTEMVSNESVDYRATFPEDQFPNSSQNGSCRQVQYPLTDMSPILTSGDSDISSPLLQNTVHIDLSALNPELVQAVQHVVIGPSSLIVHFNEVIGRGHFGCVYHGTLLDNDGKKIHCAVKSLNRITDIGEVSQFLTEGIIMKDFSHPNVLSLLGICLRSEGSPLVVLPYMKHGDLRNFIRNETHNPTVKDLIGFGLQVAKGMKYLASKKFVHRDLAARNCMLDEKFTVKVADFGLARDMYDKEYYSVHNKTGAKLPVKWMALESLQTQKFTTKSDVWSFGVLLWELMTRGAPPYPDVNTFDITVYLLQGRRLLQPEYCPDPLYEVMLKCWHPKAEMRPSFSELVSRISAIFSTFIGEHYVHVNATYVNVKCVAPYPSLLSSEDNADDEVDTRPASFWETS
Method in brief: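 This plate-based kinase format uses immobilized phospholipase C-γ as substrate, phosphorylated by c-Met cytoplasmic domain (10 ng/mL) at 37° C for 15 minutes.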

[3] = ALK kinase inhibition, 1 μM ATP, read-out: ALK Activity
[4] = c-Met kinase inhibition, 1 μM ATP, read-out: cMet Activity
[5] = ALK kinase inhibition, 1 μM ATP (Km level), read-out: ALK Activity
[6] = c-Met kinase inhibition, 1 μM ATP (Km level), read-out: cMet Activity
[7] = 1 μM ATP (Km level), read-out: ALK Activity (ALK Kinase Inhibition, IC50)
[8] = 1 μM ATP (Km level), read-out: cMet Activity (c-Met Kinase Inhibition, IC50)
[9] = 1 μM ATP (Km level), 30 ng/ml ALK, 37° C., 15 minutes, read-out: ALK Activity (ALK kinase inhibition, IC50 class)
[10] = 1 μM ATP (Km level), 10 ng/mL c-Met, read-out: cMet Activity (c-Met kinase inhibition, IC50 class)

T1 sequence (Q9UM73 19-1620): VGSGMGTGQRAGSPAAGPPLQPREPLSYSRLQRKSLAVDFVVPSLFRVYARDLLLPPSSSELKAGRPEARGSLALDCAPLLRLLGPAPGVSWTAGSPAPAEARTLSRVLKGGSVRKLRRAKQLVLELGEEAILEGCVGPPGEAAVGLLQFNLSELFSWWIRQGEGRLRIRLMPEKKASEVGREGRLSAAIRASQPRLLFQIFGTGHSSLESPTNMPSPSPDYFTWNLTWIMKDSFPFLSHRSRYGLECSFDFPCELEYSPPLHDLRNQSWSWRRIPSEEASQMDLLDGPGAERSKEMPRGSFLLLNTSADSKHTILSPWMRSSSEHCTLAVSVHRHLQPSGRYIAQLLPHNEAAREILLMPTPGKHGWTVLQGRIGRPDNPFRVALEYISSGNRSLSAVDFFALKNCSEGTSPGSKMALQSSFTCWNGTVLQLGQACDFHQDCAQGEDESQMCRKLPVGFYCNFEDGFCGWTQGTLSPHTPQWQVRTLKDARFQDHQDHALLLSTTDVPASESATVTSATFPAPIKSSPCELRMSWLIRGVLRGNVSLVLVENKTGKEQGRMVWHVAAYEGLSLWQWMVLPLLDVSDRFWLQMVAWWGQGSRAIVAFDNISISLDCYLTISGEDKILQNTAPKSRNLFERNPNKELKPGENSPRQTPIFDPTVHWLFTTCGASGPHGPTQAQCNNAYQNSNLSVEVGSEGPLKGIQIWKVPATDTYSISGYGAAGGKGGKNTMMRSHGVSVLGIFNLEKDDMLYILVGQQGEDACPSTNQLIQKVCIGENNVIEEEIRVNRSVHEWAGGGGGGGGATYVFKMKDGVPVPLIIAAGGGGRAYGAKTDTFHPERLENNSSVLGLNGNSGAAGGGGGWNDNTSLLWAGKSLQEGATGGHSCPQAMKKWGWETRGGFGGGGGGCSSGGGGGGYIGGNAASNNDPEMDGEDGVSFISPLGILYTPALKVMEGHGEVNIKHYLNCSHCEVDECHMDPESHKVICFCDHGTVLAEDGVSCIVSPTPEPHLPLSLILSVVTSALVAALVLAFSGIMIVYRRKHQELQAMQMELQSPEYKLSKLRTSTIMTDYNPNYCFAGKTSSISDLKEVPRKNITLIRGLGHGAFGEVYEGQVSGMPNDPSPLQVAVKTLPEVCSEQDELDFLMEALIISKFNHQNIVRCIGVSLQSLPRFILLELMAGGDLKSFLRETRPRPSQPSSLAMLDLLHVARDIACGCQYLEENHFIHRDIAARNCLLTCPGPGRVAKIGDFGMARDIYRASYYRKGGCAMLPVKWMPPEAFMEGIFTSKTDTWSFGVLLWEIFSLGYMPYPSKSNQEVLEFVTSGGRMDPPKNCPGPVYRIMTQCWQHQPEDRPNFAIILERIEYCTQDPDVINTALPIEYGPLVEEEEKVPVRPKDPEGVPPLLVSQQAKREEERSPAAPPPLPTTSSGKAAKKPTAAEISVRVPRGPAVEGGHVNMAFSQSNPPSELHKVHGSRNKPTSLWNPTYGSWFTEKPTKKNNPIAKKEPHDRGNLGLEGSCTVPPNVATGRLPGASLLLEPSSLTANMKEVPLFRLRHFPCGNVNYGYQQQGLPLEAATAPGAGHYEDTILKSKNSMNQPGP

- IC50 [1, 3]: < 0.1 µM
- IC50 [2, 4]: > 10 µM
Structure (SMILES): COc1cc2c(cc1Nc1ncc(Cl)c(Nc3ccc(N(C)C)cc3OC)n1)CCN(CCN1CCOCC1)CC2 [Example 1537, 5-Chloro-N(4)-(4-dimethylamino-2-methoxy-phenyl)-N(2)-[8-methoxy-3-(2-morpholin-4-yl-ethyl)-2,3,4,5-tetrahydro-1H-3-benzazepin-7-yl]-pyrimidine-2,4-diamine]

Structure (SMILES): CNS(=O)(=O)c1ccccc1Nc1nc(Nc2ccc3c(c2)C2CCC3CN(C(=O)C(F)(F)F)C2)ncc1Cl (centres unmarked) [Example 284, 2-{5-Chloro-2-[10-(2,2,2-trifluoro-acetyl)-10-aza-tricyclo[6.3.2.0*2,7*]trideca-2,4,6-trien-4-ylamino]-pyrimidin-4-ylamino}-N-methyl-benzenesulfonamide]
- IC50 [1, 5]: < 0.1 µM
- IC50 [2, 6]: 0.1 to 1 µM

Structure (SMILES): CNC(=O)c1ccccc1Nc1nc(Nc2ccc3c(c2)C2CCC(C3)N2C(C)C)ncc1Cl (centres unmarked) [Example 80, 2-[5-Chloro-2-(12-isopropyl-12-aza-tricyclo[7.2.1.0*2,7*]dodeca-2(7),3,5-trien-4-ylamino)-pyrimidin-4-ylamino]-N-methyl-benzamide]
- IC50 [1, 5]: < 0.1 µM
- IC50 [2, 6]: < 0.1 µM

- IC50 [1, 7]: < 0.1 µM
- IC50 [2, 8]: > 10 µM
Structure (SMILES): CCN1CCN(CC)c2cc(Nc3nc(Nc4cc5c(cc4OC)CCN(CC(=O)N(C)C)CC5)ncc3Cl)ccc2C1 [Example 723]

- IC50 [1, 9]: 0.1 to 1 µM
- IC50 [2, 10]: > 10 µM
Structure (SMILES): COc1cc2c(cc1Nc1ncc(Cl)c(NC3(C(=O)OC(C)C)CCCC3)n1)CCN(CC(=O)N(C)C)CC2 [Example 1202, 1-[5-Chloro-2-(3-dimethylcarbamoylmethyl-8-methoxy-2,3,4,5-tetrahydro-1H-benzo[d]azepin-7-ylamino)-pyrimidin-4-ylamino]-cyclopentanecarboxylic acid isopropyl ester]

- IC50 [1, 5]: < 0.1 µM
- IC50 [2, 6]: 0.1 to 1 µM
Structure (SMILES): COC(=O)CN1CCN(C)c2cc(Nc3ncc(Cl)c(Nc4ccccc4NS(C)(=O)=O)n3)ccc2C1 [Example 472, {8-[5-Chloro-4-(2-methanesulfonylamino-phenylamino)-pyrimidin-2-ylamino]-1-methyl-1,2,3,5-tetrahydro-benzo[e][1,4]diazepin-4-yl}-acetic acid methyl ester]

- IC50 [1, 3]: < 0.1 µM
- IC50 [2, 4]: > 10 µM
Structure (SMILES): CCN1CCN(CC(=O)N(C)C)Cc2cc(OC)c(Nc3ncc(Cl)c(N[C@@H]4CCCC[C@H]4NS(C)(=O)=O)n3)cc21 [Example 1461, 2-{8-[5-Chloro-4-((1R,2R)-2-methanesulfonylamino-cyclohexylamino)-pyrimidin-2-ylamino]-1-ethyl-7-methoxy-1,2,3,5-tetrahydro-benzo[e][1,4]diazepin-4-yl}-N,N-dimethyl-acetamide]

- IC50 [1, 5]: < 0.1 µM
- IC50 [2, 6]: 1 to 10 µM
Structure (SMILES): CNC(=O)c1ccccc1Nc1nc(Nc2cc3c(cc2OC)CC(=O)NCC3)ncc1Cl [Example 264, 2-[5-Chloro-2-(8-methoxy-2-oxo-2,3,4,5-tetrahydro-1H-benzo[d]azepin-7-ylamino)-pyrimidin-4-ylamino]-N-methyl-benzamide]

- IC50 [1, 7]: < 0.1 µM
- IC50 [2, 8]: 0.1 to 1 µM
Structure (SMILES): COCCN1CCc2ccc(Nc3ncc(Cl)c(Nc4ccc(OC)c5c4C(=O)N(C)C5)n3)cc2CC1 [Example 936, 7-{5-Chloro-2-[3-(2-methoxy-ethyl)-2,3,4,5-tetrahydro-1H-3-benzazepin-7-ylamino]-pyrimidin-4-ylamino}-4-methoxy-2-methyl-2,3-dihydro-isoindol-1-one]

- IC50 [1, 9]: < 0.1 µM
- IC50 [2, 10]: 0.1 to 1 µM
Structure (SMILES): CN1C(=O)CCC(C)(C)c2cc(Nc3ncc(Cl)c(Nc4ccccc4S(C)(=O)=O)n3)ccc21 [Example 1250, 7-[5-Chloro-4-(2-methanesulfonyl-phenylamino)-pyrimidin-2-ylamino]-1,5,5-trimethyl-1,3,4,5-tetrahydro-1-benzazepin-2-one]

- IC50 [1, 5]: < 0.1 µM
- IC50 [2, 6]: 1 to 10 µM
Structure (SMILES): COc1cc(N2CCOCC2)ccc1Nc1nc(Nc2ccc3c(c2)CCN(C[C@@H](O)C(F)(F)F)CC3)ncc1Cl [Example 333, (R)-3-{7-[5-Chloro-4-(2-methoxy-4-morpholin-4-yl-phenylamino)-pyrimidin-2-ylamino]-1,2,4,5-tetrahydro-benzo[d]azepin-3-yl}-1,1,1-trifluoro-propan-2-ol]

- IC50 [1, 3]: 1 to 10 µM
- IC50 [2, 4]: 1 to 10 µM
Structure (SMILES): CNC(=O)c1sc(C(C)(C)C)cc1Nc1nc(Nc2ccc3c(c2)CCOC(=O)N3C)ncc1Cl [Example 1761, 5-tert-Butyl-3-[5-chloro-2-(5-methyl-6-oxo-5,6,8,9-tetrahydro-7-oxa-5-aza-benzocyclohepten-2-ylamino)-pyrimidin-4-ylamino]-thiophene-2-carboxylic acid methylamide]

- IC50 [1, 5]: < 0.1 µM
- IC50 [2, 6]: 0.1 to 1 µM
Structure (SMILES): CN1C(=O)CCCc2cc(Nc3ncc(Cl)c(Nc4ccc(N5CCOCC5)cc4C(N)=O)n3)ccc21 [Example 355, 2-[5-Chloro-2-(1-methyl-2-oxo-2,3,4,5-tetrahydro-1H-benzo[b]azepin-7-ylamino)pyrimidin-4-ylamino]-5-morpholin-4-yl-benzamide]

- IC50 [1, 9]: < 0.1 µM
- IC50 [2, 10]: > 10 µM
Structure (SMILES): COCCOc1ccc(Nc2nc(Nc3cc4c(cc3OC)CCN(Cc3nccn3C)CC4)ncc2Cl)c(OC)c1 [Example 1175, 5-Chloro-N*4*-[2-methoxy-4-(2-methoxy-ethoxy)-phenyl]-N*2*-[8-methoxy-3-(1-methyl-1H-imidazol-2-ylmethyl)-2,3,4,5-tetrahydro-1H-benzo[d]azepin-7-yl]-pyrimidine-2,4-diamine]

- IC50 [1, 3]: > 10 µM
- IC50 [2, 4]: 0.1 to 1 µM
Structure (SMILES): CNC(=O)c1cccc(OC(F)(F)F)c1Nc1nc(Nc2ccc3c(c2)CCOC(=O)N3C)ncc1Cl [Example 1773, 2-[5-Chloro-2-(5-methyl-6-oxo-5,6,8,9-tetrahydro-7-oxa-5-aza-benzocyclohepten-2-ylamino)-pyrimidin-4-ylamino]-N-methyl-3-trifluoromethoxy-benzamide]

- IC50 [1, 5]: < 0.1 µM
- IC50 [2, 6]: > 10 µM
Structure (SMILES): CCN1CCc2ccc(OC)c(Nc3ncc(Cl)c(Nc4ccccc4S(=O)(=O)NC)n3)c2CC1 [Example 49, 2-[5-Chloro-2-(3-ethyl-7-methoxy-2,3,4,5-tetrahydro-1H-benzo[d]azepin-6-ylamino)-pyrimidin-4-ylamino]-N-methyl-benzenesulfonamide]

- IC50 [1, 7]: < 0.1 µM
- IC50 [2, 8]: 0.1 to 1 µM
Structure (SMILES): COCCN1CCc2ccc(Nc3ncc(Cl)c(Nc4ccccc4-c4cccc(C)n4)n3)cc2CC1 [Example 1009, 5-Chloro-N*2*-[3-(2-methoxy-ethyl)-2,3,4,5-tetrahydro-1H-benzo[d]azepin-7-yl]-N*4*-[2-(6-methyl-pyridin-2-yl)-phenyl]-pyrimidine-2,4-diamine]

- IC50 [1, 7]: 0.1 to 1 µM
- IC50 [2, 8]: 1 to 10 µM
Structure (SMILES): COCCN1CCc2ccc(Nc3ncc(Cl)c(Nc4cccc5c4ncn5C)n3)cc2CC1 [Example 1006, 5-Chloro-N*2*-[3-(2-methoxy-ethyl)-2,3,4,5-tetrahydro-1H-benzo[d]azepin-7-yl]-N*4*-(1-methyl-1H-benzoimidazol-4-yl)-pyrimidine-2,4-diamine]

- IC50 [1, 5]: 0.1 to 1 µM
- IC50 [2, 6]: 1 to 10 µM
Structure (SMILES): COCCN1CCc2ccc(Nc3ncc(Cl)c(NCCNS(C)(=O)=O)n3)cc2CC1 [Example 299, N-(2-{5-Chloro-2-[3-(2-methoxy-ethyl)-2,3,4,5-tetrahydro-1H-benzo[d]azepin-7-ylamino]-pyrimidin-4-ylamino}-ethyl)-methanesulfonamide]
